Data published in PMC12073402, “A Selective MAP3K1 Inhibitor Facilitates Discovery of NPM1 as a Member of the Network” (Molecules, 2025).

Key:
Assay in all cases: KiNativ kinome profiling in PANC-1 lysate
Format in all cases: binding
MAP2K1, MAP2K2 = details: 5 µM
Method in brief: (§1)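 PANC-1 lysates were incubated with 5 μM inhibitor or DMSO, then labeled with a desthiobiotin-ATP acyl-phosphate probe that biotinylates conserved kinase lysines. Tryptic peptides were streptavidin-enriched and quantified by LC-MS/MS, reported as % change in MS signal from duplicate treated and duplicate control samples.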

ILK = molecular target: T1, ILK (Homo sapiens, UniProt Q13418)
T1 construct: we opted to conduct a kinome screen (KiNativ) in PANC-1 cell lysates; endogenous in cells; host or cells: PANC-1 cell lysate
Method in brief: as §1

FER = molecular target: T2, FER (Homo sapiens, UniProt P16591)
T2 construct: endogenous in cells; host or cells: PANC-1 lysate
Method in brief: as §1

LKB1 = molecular target: T3, LKB1 (Homo sapiens, UniProt Q15831); details: Lys2
T3 construct: we opted to conduct a kinome screen (KiNativ) in PANC-1 cell lysates; endogenous in cells; host or cells: PANC-1 cell lysate
Method in brief: as §1

PIK3C3 = molecular target: T4, PIK3C3 (Homo sapiens, UniProt Q8NEB9); details: ATP
T4 construct: endogenous in cells; host or cells: PANC-1 cell lysate
Method in brief: as §1

PKN2 = molecular target: T5, PKN2 (Homo sapiens, UniProt Q16513); details: Lys2
T5 construct: endogenous in cells; host or cells: PANC-1 cell lysate
Method in brief: as §1

FRK = molecular target: T6, FRK (Homo sapiens, UniProt P42685); details: ATP Loop
T6 construct: endogenous in cells; host or cells: PANC-1 lysate
Method in brief: as §1

LATS2 = molecular target: T7, LATS2 (Homo sapiens, UniProt Q9NRM7)
T7 construct: we opted to conduct a kinome screen (KiNativ) in PANC-1 cell lysates; endogenous in cells; host or cells: PANC-1 cell lysate
Method in brief: as §1

PIP5K1A = molecular target: T8, PIP5K1A (Homo sapiens, UniProt Q99755); details: ATP
T8 construct: endogenous in cells; host or cells: PANC-1 cell lysate
Method in brief: as §1

MARK2 = molecular target: T9, MARK2 (Homo sapiens, UniProt Q7KZI7); details: Lys1
T9 construct: endogenous in cells; host or cells: PANC-1 cell lysate
Method in brief: as §1

AurB = molecular target: T10, AurB (Homo sapiens, UniProt Q96GD4); details: Lys1
T10 construct: endogenous in cells; host or cells: PANC-1 cell lysate
Method in brief: as §1

PIK3CB = molecular target: T11, PIK3CB (Homo sapiens, UniProt P42338); details: ATP
T11 construct: endogenous in cells; host or cells: PANC-1 cell lysate
Method in brief: as §1

PAK2 = molecular target: T12, PAK2 (Homo sapiens, UniProt Q13177)
T12 construct: endogenous in cells; host or cells: PANC-1 cell lysate
Method in brief: as §1

PCTAIRE2, PCTAIRE3 = details: 5 µM; Lys1; SKLTENLVALKEIR
Method in brief: as §1

PI4KA, PI4KAP2 = details: 5 µM; ATP; SGTPMQSAAKAPYLAK
Method in brief: as §1

JNK1, JNK2, JNK3 = details: 5 µM; Lys2; DLKPSNIVVK
Method in brief: as §1

IRAK1 = molecular target: T13, IRAK1 (Homo sapiens, UniProt P51617); details: Lys2
T13 construct: we opted to conduct a kinome screen (KiNativ) in PANC-1 cell lysates; endogenous in cells; host or cells: PANC-1 cell lysate
Method in brief: as §1

YANK3 = molecular target: T14, YANK3 (Homo sapiens, UniProt Q86UX6); details: Lys2
T14 construct: endogenous in cells; host or cells: PANC-1 cell lysate
Method in brief: as §1

ROCK1, ROCK2 = details: 5 µM
Method in brief: as §1

ITPK1 = molecular target: T15, ITPK1 (Homo sapiens, UniProt Q13572); details: ATP Loop
T15 construct: we opted to conduct a kinome screen (KiNativ) in PANC-1 cell lysates; endogenous in cells; host or cells: PANC-1 cell lysate
Method in brief: as §1

QSK = molecular target: T16, QSK (Homo sapiens, UniProt Q9Y2K2); details: Lys1
T16 construct: endogenous in cells; host or cells: PANC-1 cell lysate
Method in brief: as §1

ZC2/TNIK = molecular target: T17, ZC2/TNIK (Homo sapiens, UniProt Q9UKE5); details: Lys1
T17 construct: endogenous in cells; host or cells: PANC-1 cell lysate
Method in brief: as §1

DGKA = molecular target: T18, DGKA (Homo sapiens, UniProt P23743); details: ATP
T18 construct: endogenous in cells; host or cells: PANC-1 lysate
Method in brief: as §1

SRPK1, SRPK2 = details: 5 µM; Lys1; FVAMKVVK
Method in brief: as §1

STLK6 = molecular target: T19, STLK6 (Homo sapiens, UniProt Q9C0K7); details: Lys1
T19 construct: endogenous in cells; host or cells: PANC-1 cell lysate
Method in brief: as §1

BARK1 = molecular target: T20, BARK1 (Homo sapiens, UniProt P25098); details: Lys2
T20 construct: endogenous in cells; host or cells: PANC-1 cell lysate
Method in brief: as §1

T11 sequence (P42338 whole entry): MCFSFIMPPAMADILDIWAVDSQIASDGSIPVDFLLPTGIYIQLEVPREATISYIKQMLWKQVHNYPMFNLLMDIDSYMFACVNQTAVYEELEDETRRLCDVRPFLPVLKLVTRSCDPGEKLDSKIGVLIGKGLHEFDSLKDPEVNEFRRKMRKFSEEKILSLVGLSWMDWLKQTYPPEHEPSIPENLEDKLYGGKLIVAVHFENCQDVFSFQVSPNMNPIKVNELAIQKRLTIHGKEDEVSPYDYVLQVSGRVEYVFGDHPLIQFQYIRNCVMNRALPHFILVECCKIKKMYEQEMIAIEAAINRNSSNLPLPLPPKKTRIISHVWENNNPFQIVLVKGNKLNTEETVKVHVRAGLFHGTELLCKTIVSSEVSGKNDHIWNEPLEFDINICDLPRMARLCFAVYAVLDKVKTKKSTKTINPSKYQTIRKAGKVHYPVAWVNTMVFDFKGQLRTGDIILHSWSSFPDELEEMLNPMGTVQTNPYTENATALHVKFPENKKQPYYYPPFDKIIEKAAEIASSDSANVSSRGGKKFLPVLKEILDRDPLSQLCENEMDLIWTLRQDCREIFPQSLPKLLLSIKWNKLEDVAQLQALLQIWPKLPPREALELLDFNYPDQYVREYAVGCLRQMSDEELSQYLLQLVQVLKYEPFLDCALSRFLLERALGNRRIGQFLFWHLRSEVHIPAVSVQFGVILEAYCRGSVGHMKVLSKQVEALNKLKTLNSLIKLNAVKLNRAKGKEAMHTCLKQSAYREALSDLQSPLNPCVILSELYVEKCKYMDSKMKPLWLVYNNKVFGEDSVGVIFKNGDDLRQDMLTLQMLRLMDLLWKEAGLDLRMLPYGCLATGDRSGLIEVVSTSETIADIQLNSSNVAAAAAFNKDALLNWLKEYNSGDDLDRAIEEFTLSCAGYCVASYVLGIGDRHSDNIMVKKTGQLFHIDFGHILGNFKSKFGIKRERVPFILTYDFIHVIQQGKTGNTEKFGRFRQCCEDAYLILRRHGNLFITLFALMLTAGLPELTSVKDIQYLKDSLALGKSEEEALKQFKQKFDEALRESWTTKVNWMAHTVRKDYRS
T11 sequence (P27986 whole entry partner): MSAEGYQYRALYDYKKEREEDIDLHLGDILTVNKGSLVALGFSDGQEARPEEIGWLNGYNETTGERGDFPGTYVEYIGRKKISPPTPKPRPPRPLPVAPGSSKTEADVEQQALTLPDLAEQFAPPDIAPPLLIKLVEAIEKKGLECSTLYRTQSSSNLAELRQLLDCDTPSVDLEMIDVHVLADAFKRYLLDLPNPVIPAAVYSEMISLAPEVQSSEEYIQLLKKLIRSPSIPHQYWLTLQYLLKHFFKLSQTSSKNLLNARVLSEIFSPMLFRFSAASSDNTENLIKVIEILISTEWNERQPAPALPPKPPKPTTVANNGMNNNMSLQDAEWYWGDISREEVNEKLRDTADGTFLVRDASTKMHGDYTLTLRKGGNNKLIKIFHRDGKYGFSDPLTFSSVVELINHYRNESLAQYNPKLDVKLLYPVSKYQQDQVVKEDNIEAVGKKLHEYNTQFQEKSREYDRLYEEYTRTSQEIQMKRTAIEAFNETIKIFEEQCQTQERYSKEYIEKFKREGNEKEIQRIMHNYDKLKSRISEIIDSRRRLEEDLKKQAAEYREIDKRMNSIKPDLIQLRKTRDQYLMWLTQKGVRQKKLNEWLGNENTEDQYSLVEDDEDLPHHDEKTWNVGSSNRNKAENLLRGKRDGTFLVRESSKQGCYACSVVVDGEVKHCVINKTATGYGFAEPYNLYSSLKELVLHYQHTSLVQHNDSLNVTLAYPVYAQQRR
T12 sequence (Q13177 whole entry): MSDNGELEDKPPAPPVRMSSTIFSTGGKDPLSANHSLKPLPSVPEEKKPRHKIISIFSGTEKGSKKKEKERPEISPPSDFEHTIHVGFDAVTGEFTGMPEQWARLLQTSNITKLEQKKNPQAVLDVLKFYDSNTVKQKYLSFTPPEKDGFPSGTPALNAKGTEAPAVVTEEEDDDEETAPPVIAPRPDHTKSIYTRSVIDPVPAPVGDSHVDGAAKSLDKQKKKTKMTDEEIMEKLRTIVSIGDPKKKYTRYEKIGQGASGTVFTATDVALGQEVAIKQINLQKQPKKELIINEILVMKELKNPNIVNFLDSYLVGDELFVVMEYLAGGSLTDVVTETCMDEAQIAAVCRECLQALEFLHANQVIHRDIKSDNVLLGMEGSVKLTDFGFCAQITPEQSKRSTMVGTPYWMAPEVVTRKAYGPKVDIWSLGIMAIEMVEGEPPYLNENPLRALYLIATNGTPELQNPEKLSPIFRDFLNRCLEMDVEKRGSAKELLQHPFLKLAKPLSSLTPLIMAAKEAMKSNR
T1 sequence (Q13418 whole entry): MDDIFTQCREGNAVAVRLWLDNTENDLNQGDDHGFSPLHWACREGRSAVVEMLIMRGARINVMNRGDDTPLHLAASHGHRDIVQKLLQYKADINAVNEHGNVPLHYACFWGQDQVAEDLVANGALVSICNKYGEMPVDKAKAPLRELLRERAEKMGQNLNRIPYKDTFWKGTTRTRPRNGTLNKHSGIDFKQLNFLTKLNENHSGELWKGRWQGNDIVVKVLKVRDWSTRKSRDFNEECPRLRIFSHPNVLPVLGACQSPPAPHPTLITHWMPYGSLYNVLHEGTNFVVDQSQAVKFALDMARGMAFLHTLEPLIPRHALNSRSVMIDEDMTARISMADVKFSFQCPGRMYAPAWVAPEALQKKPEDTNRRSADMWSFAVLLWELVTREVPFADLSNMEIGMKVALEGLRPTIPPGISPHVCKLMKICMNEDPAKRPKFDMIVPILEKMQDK
T2 sequence (P16591 whole entry): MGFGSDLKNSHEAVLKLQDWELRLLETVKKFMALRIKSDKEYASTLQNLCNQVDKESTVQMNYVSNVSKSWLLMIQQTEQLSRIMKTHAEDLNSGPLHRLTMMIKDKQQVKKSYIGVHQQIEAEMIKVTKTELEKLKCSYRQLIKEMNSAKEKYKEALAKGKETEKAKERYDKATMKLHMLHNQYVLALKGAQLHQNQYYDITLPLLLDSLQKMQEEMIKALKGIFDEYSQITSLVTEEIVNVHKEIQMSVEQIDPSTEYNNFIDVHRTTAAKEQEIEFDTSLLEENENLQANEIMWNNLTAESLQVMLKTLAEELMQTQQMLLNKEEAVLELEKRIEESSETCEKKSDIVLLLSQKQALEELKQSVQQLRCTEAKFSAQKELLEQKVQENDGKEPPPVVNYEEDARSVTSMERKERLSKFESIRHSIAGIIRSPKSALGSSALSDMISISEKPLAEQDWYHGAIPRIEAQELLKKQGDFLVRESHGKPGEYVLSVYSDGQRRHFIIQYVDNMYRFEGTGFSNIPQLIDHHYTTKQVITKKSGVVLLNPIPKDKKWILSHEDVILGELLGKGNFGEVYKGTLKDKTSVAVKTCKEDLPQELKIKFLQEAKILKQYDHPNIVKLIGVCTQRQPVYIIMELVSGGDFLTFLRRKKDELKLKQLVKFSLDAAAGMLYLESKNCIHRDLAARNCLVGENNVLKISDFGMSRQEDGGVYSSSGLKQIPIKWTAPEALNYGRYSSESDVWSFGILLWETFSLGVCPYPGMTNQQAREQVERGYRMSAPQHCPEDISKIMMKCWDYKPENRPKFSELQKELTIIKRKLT
T4 sequence (Q8NEB9 whole entry): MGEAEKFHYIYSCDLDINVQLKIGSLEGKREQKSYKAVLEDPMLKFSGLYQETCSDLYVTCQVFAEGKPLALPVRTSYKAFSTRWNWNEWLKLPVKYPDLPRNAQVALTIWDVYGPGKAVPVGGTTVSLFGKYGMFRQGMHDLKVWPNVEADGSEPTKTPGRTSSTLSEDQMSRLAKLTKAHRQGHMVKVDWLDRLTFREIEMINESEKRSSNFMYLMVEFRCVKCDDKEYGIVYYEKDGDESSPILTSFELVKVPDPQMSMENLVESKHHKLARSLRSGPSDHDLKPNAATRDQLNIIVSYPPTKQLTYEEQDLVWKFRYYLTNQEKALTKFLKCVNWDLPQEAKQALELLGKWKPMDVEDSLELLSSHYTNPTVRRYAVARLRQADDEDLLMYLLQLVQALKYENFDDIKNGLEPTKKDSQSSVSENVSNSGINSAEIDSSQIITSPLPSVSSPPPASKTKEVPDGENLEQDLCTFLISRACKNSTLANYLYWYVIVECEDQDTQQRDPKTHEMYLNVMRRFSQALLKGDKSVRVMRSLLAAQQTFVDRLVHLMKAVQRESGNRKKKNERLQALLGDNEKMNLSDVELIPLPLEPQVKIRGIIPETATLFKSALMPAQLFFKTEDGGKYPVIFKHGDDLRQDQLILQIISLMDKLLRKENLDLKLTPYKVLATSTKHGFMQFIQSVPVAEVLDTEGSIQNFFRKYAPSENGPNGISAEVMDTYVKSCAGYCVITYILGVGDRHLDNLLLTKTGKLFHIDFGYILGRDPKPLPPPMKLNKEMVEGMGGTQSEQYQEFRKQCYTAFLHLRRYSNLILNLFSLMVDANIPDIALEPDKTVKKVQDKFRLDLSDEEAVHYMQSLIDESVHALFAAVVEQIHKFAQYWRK
T15 sequence (Q13572 whole entry): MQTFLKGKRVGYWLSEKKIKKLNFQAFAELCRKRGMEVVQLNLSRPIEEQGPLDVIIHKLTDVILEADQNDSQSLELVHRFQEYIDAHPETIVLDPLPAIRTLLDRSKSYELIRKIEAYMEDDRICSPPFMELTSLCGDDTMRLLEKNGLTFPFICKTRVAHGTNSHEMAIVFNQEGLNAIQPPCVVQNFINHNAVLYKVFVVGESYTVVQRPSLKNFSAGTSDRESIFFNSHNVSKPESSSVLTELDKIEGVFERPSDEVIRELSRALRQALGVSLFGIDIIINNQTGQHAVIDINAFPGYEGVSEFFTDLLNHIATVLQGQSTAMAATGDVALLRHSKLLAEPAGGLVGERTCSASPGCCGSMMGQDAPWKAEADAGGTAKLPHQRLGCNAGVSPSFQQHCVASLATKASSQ

In the case of `Cn1cc(-c2cnc3ccc(NC(=O)Nc4ccc(F)c(C(F)(F)F)c4)cc3n2)cn1` [51-106, 1-(4-Fluoro-3-(trifluoromethyl)phenyl)-3-(3-(1-methyl-1H-pyrazol-4-yl)quinoxalin-6-yl)urea], the “% Inhibition” value (MAP2K1, MAP2K2; Lys1, KLIHLEIKPAIR) is reported as “NB (NB = No Binding (≤ 0))”, the “% Inhibition” value (MAP2K1, MAP2K2; Lys2, DVKPSNILVNSR) is reported as 1.2% and the “% Inhibition” value (ILK; 5 µM, Protein Kinase Domain, ISMADVKFSFQCPGR) is reported as “NB (NB = No Binding (≤ 0))”. For the same compound, the inhibition at 5 µM (ILK; Lys1, […]) was ≤ 0%, the “% Inhibition” value (FER; 5 µM, ATP Loop, QEDGGVYSSSGLKQIPIK) was “NB (NB = No Binding (≤ 0))” and the inhibition at 5 µM (FER; Lys1, […]) was ≤ 0%. For the same compound, the inhibition at 5 µM (LKB1) was ≤ 0%, the inhibition at 5 µM (PIK3C3; TEDGGKYPVIFKHGDDLR) was 4.9% and the inhibition at 5 µM (PIK3C3; TEDGGKYPVIFKHGDDLRQDQLILQIISLMDK) was ≤ 0%. The inhibition at 5 µM (PKN2) was 3.7%, the inhibition at 5 µM (FRK) was ≤ 0% and the inhibition at 5 µM (LATS2; Lys1, VDTHALYAMKTLR) was ≤ 0%. The inhibition at 5 µM (LATS2; Lys2, DIKPDNILIDLDGHIK) was 1.4%, the inhibition at 5 µM (PIP5K1A) was 8.7% and the inhibition at 5 µM (MARK2) was 5%. The inhibition at 5 µM (AurB) was ≤ 0%, the inhibition at 5 µM (PIK3CB; VFGEDSVGVIFKNGDDLR) was 1.7% and the inhibition at 5 µM (PIK3CB; VFGEDSVGVIFKNGDDLRQDMLTLQMLR) was 31.4%. The inhibition at 5 µM (PAK2; Lys1, IGQGASGTVFTATDVALGQEVAIKQINLQK) was 6.9%, the inhibition at 5 µM (PAK2; Other, KNPQAVLDVLKFYDSNTVK) was 0.8% and the “% Inhibition” value (PCTAIRE2, PCTAIRE3) was “NB (NB = No Binding (≤ 0))”. For the same compound, the “% Inhibition” value (PI4KA, PI4KAP2) was 3.0%, the “% Inhibition” value (JNK1, JNK2, JNK3) was “NB (NB = No Binding (≤ 0))” and the inhibition at 5 µM (IRAK1) was ≤ 0%. For the same compound, the inhibition at 5 µM (YANK3) was ≤ 0%, the “% Inhibition” value (ROCK1, ROCK2; Lys1, VYAMKLLSK) was 11.9% and the “% Inhibition” value (ROCK1, ROCK2; Lys2, DVKPDNMLLDK) was “NB (NB = No Binding (≤ 0))”. For the same compound, the inhibition at 5 µM (ITPK1) was ≤ 0%, the inhibition at 5 µM (QSK) was ≤ 0% and the inhibition at 5 µM (ZC2/TNIK) was 11.2%. For the same compound, the inhibition at 5 µM (DGKA) was ≤ 0%, the “% Inhibition” value (SRPK1, SRPK2) was “NB (NB = No Binding (≤ 0))” and the inhibition at 5 µM (STLK6) was 5.8%. For the same compound, the inhibition at 5 µM (BARK1) was 2.2%.
